The source of these data is patent US20210009542A1 (Calico Life Sciences LLC, priority 2018, published 2021).

The structures appear in SMILES notation.

For the assay, the target named is T1, His tagged PTPN2 (TC45) protein (Homo sapiens, UniProt P17706).
T1 construct: made in house
T1 sequence (P17706 with tags, fused parts or gaps isoform P17706-2): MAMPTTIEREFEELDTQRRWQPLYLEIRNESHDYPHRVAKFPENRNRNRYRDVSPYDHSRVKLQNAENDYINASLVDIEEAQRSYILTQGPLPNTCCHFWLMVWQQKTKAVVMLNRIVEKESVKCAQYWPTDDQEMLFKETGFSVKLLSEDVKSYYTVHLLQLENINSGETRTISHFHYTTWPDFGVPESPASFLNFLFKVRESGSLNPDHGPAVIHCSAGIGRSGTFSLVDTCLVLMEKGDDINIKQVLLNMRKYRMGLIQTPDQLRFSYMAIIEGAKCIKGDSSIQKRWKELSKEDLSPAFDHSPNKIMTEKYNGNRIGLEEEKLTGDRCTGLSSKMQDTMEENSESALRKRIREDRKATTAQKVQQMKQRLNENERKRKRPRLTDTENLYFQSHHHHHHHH
The assay is described as follows: Mobility shift assay (MSA) for potency of PTPN2 inhibitors. The class given is biochemical. The following applies: read-out: PTPN2 MSA IC50. The method, then:
Compound activity was determined using in house His tagged PTPN2 (TC45) protein (SEQ ID NO: 1) in an in vitro enzymatic reaction. The enzymatic assay used to determine activity was a mobility shift assay using a LabChip EZ Reader by Caliper Life Sciences. The enzymatic reaction was carried out in assay buffer (50 mM HEPES pH 7.5, 1 mM EGTA, 10 mM EDTA, 0.01% Tween® 20, and 2 mM DTT). The compounds were dispensed on a white 384 well ProxiPlate™ (PerkinElmer Catalog #6008289) plate using the Labcyte Echo at varying concentrations (12 point, 1:3 dilution). The enzyme (at 0.5 nM) was incubated with compound for 10 minutes at room temperature. Then the substrate (phosphorylated insulin receptor probe sequence: ((OG488)-(NH—CH2—CH2—O—CH2—CH2—O—CH2—CO)-T-R-D-I-(PY)-E-T-D-Y-Y-R-K-K-NH2) (SEQ ID NO: 2) was added at […] to the plates and incubated for another 10 minutes at room temperature. Finally, a quench solution (water and 4-bromo-3-(2-oxo-2-propoxyethoxy)-5-(3-{[1-(phenylmethanesulfonyl)piperidin-4-yl]amino}phenyl)thiophene-2-carboxylic acid) was added to the plates, which were then run on the EZ Reader (excitation 488 nm, emission 530 nm) to measure % conversion (the amount of phosphorylated substrate which was de-phosphorylated by PTPN2). […] The % inhibition was then used to calculate the IC50 values.
For the compound `C[C@@H](O)CCOc1ccc2cc(O)c(N3CC(=O)NS3(=O)=O)c(F)c2c1` [Compound 149, 5-{1-fluoro-3-hydroxy-7-[(3R)-3-hydroxybutoxy]naphthalen-2-yl}-1λ^6,2,5-thiadiazolidine-1,1,3-trione], the IC50 was in the range of 1 to 10 nM.

Take `CC(C)CCCc1ccc2cc(O)c(N3CC(=O)NS3(=O)=O)c(F)c2c1` [Compound 219, 5-[1-fluoro-3-hydroxy-7-(4-methylpentyl)naphthalen-2-yl]-1λ^6,2,5-thiadiazolidine-1,1,3-trione]: the IC50 lay within 1 to 10 nM.

Consider `CNCCOc1ccc2cc(O)c(N3CC(=O)NS3(=O)=O)c(F)c2c1` [Compound 143, 5-{1-fluoro-3-hydroxy-7-[2-(methylamino)ethoxy]naphthalen-2-yl}-1λ^6,2,5-thiadiazolidine-1,1,3-trione], for which the concentration for half-maximal inhibition (IC50) lay in the range of 1 to 10 nM.

Turning to `O=C(O)CNc1ccc2cc(O)c(N3CC(=O)NS3(=O)=O)c(F)c2c1` [Compound 280, {[8-fluoro-6-hydroxy-7-(1,1,4-trioxo-1λ^6,2,5-thiadiazolidin-2-yl)naphthalen-2-yl]amino}acetic acid], the IC50 fell in the range of 10 to 100 nM.

On to `O=C1CN(c2c(O)cc3ccc(OCCn4cccn4)cc3c2F)S(=O)(=O)N1` [Compound 188, 5-{1-fluoro-3-hydroxy-7-[2-(1H-pyrazol-1-yl)ethoxy]naphthalen-2-yl}-1λ^6,2,5-thiadiazolidine-1,1,3-trione], for which the IC50 is 1 to 10 nM.

With `COc1ccc2cc(O)c(N3CC(=O)NS3(=O)=O)c(F)c2c1Cl` [Compound 234, 5-(8-chloro-1-fluoro-3-hydroxy-7-methoxynaphthalen-2-yl)-1λ^6,2,5-thiadiazolidine-1,1,3-trione], the IC50 was in the range of 10 to 100 nM.

In the case of `CC1(COc2ccc3cc(O)c(N4CC(=O)NS4(=O)=O)c(F)c3c2)COC1` [Compound 230, 5-{1-fluoro-3-hydroxy-7-[(3-methyloxetan-3-yl)methoxy]naphthalen-2-yl}-1λ^6,2,5-thiadiazolidine-1,1,3-trione], the IC50 lay in the range of 1 to 10 nM.

For `O=C1CN(c2c(O)cc3ccc(-c4cccnc4)cc3c2F)S(=O)(=O)N1` [Compound 266, 5-[1-fluoro-3-hydroxy-7-(pyridin-3-yl)naphthalen-2-yl]-1λ^6,2,5-thiadiazolidine-1,1,3-trione], the IC50 lay in the range of 1 to 10 nM.

In the case of `O=C1CN(c2c(O)cc3ccc(C4=CCNC4)cc3c2F)S(=O)(=O)N1` [Compound 265, 5-[7-(2,5-dihydro-1H-pyrrol-3-yl)-1-fluoro-3-hydroxynaphthalen-2-yl]-1λ^6,2,5-thiadiazolidine-1,1,3-trione], the IC50 fell in the range of 1 to 10 nM.

Take `O=C1CN(c2c(O)c(Br)c3ccc(-c4ccn(S(=O)(=O)C5CC5)c4)cc3c2F)S(=O)(=O)N1` [Compound 231B, 5-{4-bromo-7-[1-(cyclopropanesulfonyl)-1H-pyrrol-3-yl]-1-fluoro-3-hydroxynaphthalen-2-yl}-1λ^6,2,5-thiadiazolidine-1,1,3-trione]: the IC50 was in the range of 1 to 10 nM.

Regarding `C=C(c1ccc2cc(O)c(N3CC(=O)NS3(=O)=O)c(F)c2c1)c1c(C)c(C)c(C)c(C)c1C` [Compound 241, 5-{1-fluoro-3-hydroxy-7-[1-(pentamethylphenyl)ethenyl]naphthalen-2-yl}-1λ^6,2,5-thiadiazolidine-1,1,3-trione], the half-inhibitory concentration (IC50) is over 100 nM.

Take `O=C1CN(c2c(O)cc3ccc(C4=CCN(S(=O)(=O)CCCC(F)(F)F)C4)cc3c2F)S(=O)(=O)N1` [Compound 290, 5-{1-fluoro-3-hydroxy-7-[1-(4,4,4-trifluorobutane-1-sulfonyl)-2,5-dihydro-1H-pyrrol-3-yl]naphthalen-2-yl}-1λ^6,2,5-thiadiazolidine-1,1,3-trione]: the IC50 is under 1 nM.

As for `Nc1cccc(CS(=O)(=O)N2CC=C(c3ccc4cc(O)c(N5CC(=O)NS5(=O)=O)c(F)c4c3)C2)c1` [Compound 194, 5-(7-{1-[(3-aminophenyl)methanesulfonyl]-2,5-dihydro-1H-pyrrol-3-yl}-1-fluoro-3-hydroxynaphthalen-2-yl)-1λ^6,2,5-thiadiazolidine-1,1,3-trione], the 50% inhibitory concentration (IC50) is under 1 nM.

By IC50 is commonly meant the midpoint of a concentration-inhibition curve.
